In ChEMBL document CHEMBL4339242, “Pyranoflavanones and Pyranochalcones from the Fruits of Amomum tsao-ko” (J Nat Prod, 2019) one finds Activity and IC50 data, which are given here for eleven compounds.

The subject of data set [1] is RAW264.7. In words: Toxicity in lipopolysaccharide-induced mouse RAW264.7 cells by MTT-based colorimetric assay. It counts as cell-based.
Data set [2] has as its system RAW264.7. As to the kind of experiment: Inhibition of lipopolysaccharide-induced nitric oxide production in mouse RAW264.7 cells by Griess reagent based assay. It counts as functional, cell-based. A general note: Griess reagent forms a coloured azo dye with nitrite.

Turning to `COc1cc2c(c3c1C(=O)C[C@H](c1ccccc1)O3)C=CC(C)(CC/C=C(\C)CCC=C(C)C)O2` (stereo partly specified), the Activity result with RAW264.7 [1] is “Non-Toxic”. The compound also displayed an IC50 with RAW264.7 [2] of 26.1 µM.

As for `COc1cc2c(c3c1C(=O)C[C@@H](c1ccc(O)cc1)O3)C=CC(C)(CC/C=C(\C)CCC=C(C)C)O2` (stereo partly specified), the Activity entry with RAW264.7 [1] was “Non-Toxic”. Also, the IC50 in the data set with RAW264.7 [2] turned out to be 39.2 µM.

With `COc1cc2c(c3c1C(=O)C[C@@H](c1ccc(O)cc1)O3)C=CC(C)(CCC=C(C)C)O2` (stereo partly specified), the Activity entry in the data set with RAW264.7 [1] was “Non-Toxic”. For the same compound, in the data set with RAW264.7 [2], the IC50 amounted to 14 µM.

As for `COc1cc2c(c(O)c1C(=O)/C=C/c1ccc(O)cc1)C=CC(C)(CC/C=C(\C)CCC=C(C)C)O2` (stereo unspecified), the Activity entry in the data set with RAW264.7 [1] was “Non-Toxic”. In addition, in the data set on RAW264.7 [2], the IC50 was found to be 30.6 µM.

Take `COc1cc2c(c3c1C(=O)C[C@@H](c1ccccc1)O3)C=CC(C)(CC/C=C(\C)CCC=C(C)C)O2` (stereo partly specified): in the data set with RAW264.7 [1], the Activity entry is on record as “Non-Toxic”. The compound further showed an IC50 in the data set on RAW264.7 [2] of 28.7 µM.

Turning to `COc1cc2c(c3c1C(=O)C[C@@H](c1ccccc1)O3)C=CC(C)(CCC=C(C)C)O2` (stereo partly specified), in the data set with RAW264.7 [1], the Activity result was “Non-Toxic”. Half-maximal inhibition in the data set on RAW264.7 [2] (IC50) required 13.5 µM.

For the compound `N=C(N)NN` [PIMAGEDINE], in the data set on RAW264.7 [2], the half-inhibitory concentration (IC50) was 21.7 µM.

In the case of `COc1cc2c(c3c1C(=O)C[C@H](c1ccccc1)O3)C=CC(C)(CCC=C(C)C)O2` (stereo partly specified), the Activity entry in the data set with RAW264.7 [1] was “Non-Toxic”. For the same compound, in the data set with RAW264.7 [2], 10.6 µM corresponded to half-maximal inhibition (IC50).

In the case of `COc1cc2c(c3c1C(=O)C[C@H](c1ccc(O)cc1)O3)C=CC(C)(CC/C=C(\C)CCC=C(C)C)O2` (stereo partly specified), in the data set with RAW264.7 [1], the Activity entry is given as “Non-Toxic”. In the data set with RAW264.7 [2], this compound came in with an IC50 of 41.5 µM.

Consider `COc1cc2c(c(O)c1C(=O)/C=C/c1ccccc1)C=CC(C)(CC/C=C(\C)CCC=C(C)C)O2` (stereo unspecified), for which the Activity result in the data set with RAW264.7 [1] is given as “Non-Toxic”. Inhibition in the data set on RAW264.7 [2] was half-maximal at 13.5 µM (IC50).

With `COc1cc2c(c3c1C(=O)C[C@H](c1ccc(O)cc1)O3)C=CC(C)(CCC=C(C)C)O2` (stereo partly specified), the Activity result in the data set on RAW264.7 [1] is “Non-Toxic”. In the data set on RAW264.7 [2], this compound yielded an IC50 of 16.2 µM.

A word on the IC50: it is the concentration needed to halve the response being measured. A higher IC50 goes with weaker potency.
